This note sets out measurements from ChEMBL document CHEMBL1158743, “Tenellones A and B from a Diaporthe sp.: two highly substituted benzophenone inhibitors of parasite cGMP-dependent protein kinase activity” (J Nat Prod, 2005).

In general, pIC50 refers to the IC50 on a negative log10 scale, so that one unit is a factor of ten. Broadly, the MIC is the lowest concentration that inhibits growth of the organism. Low values mean inhibition by little substance, high ones a need for much substance.

pIC50: −log10 of the molar value. Values after ≈ are worked out from the molar mass of the structure shown. Active and inactive are the calls of the source. No cut-off for these calls is given here.

Data set [1] concerns the target cGMP-dependent protein kinase (Eimeria tenella, UniProt Q8MMZ8). Put plainly: Inhibition of Eimera tenella CGMP-dependent protein kinase by radiometric assay.
In the next data set the test system is Staphylococcus aureus. Nature of the data set: Antibacterial activity against Staphylococcus aureus. It is filed as functional.
The subject of a further data set is Enterococcus faecium. Put plainly: Antibacterial activity against Enterococcus faecium. In kind it is functional.
The species named for a further data set is Gallus gallus. Put plainly: Toxicity to Eimera tenella infected chickens given ad libitum at 100 ppm. It is filed as organism-based. As to conditions: chicken, in vivo, po.
The next data set has as its system Eimeria tenella. Nature of the data set: Antiparasitic activity against Eimera tenella infected in chickens given ad libitum at 100 ppm fed with diet. It is filed as functional, organism-based.
In another data set the test system is Toxoplasma gondii. Put plainly: Antiparasitic activity against Toxoplasma gondii infected in human foreskin fibroblasts assessed as beta-galactosidase activity after 5 days by whole cell assay. In kind it is functional, organism-based. As to conditions: 120 h.

Chain of cGMP-dependent protein kinase (Q8MMZ8 whole entry): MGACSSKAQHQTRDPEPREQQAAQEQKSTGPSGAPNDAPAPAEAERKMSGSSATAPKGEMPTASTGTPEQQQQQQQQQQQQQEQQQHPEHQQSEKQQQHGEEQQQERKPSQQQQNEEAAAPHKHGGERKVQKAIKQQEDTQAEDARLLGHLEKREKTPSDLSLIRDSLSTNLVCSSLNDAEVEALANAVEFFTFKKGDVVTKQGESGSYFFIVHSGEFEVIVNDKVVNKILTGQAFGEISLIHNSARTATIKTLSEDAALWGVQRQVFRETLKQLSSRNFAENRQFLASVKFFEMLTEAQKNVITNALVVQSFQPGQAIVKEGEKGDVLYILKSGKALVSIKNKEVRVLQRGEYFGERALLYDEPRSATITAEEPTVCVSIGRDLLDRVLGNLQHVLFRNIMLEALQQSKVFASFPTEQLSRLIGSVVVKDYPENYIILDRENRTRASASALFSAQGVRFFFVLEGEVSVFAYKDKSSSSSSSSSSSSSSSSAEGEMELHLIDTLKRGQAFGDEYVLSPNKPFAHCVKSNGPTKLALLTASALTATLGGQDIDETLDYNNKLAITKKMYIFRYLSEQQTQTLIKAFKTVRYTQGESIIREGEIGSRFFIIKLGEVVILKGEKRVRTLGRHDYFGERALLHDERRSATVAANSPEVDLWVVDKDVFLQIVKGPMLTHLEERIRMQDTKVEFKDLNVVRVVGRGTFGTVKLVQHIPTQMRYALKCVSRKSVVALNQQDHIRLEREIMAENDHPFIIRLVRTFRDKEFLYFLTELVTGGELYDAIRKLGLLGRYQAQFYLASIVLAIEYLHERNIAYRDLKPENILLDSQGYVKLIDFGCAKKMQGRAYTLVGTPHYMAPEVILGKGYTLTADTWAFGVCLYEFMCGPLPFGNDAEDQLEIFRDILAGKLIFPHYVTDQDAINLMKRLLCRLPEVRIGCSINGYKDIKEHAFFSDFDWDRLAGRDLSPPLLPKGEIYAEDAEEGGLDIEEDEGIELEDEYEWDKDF

With `CN1CCC(c2cc(-c3ccncc3)c(-c3ccc(F)cc3)[nH]2)CC1`, the pIC50 in data set [1] is > 9.00.

In the case of `COc1c(Cl)c(C)c(Cl)c(O)c1C(=O)c1c(C=O)c(O)cc(O)c1CC=C(C)C` [PESTALONE], the minimal inhibitory concentration (MIC) in the data set on Staphylococcus aureus worked out at 0.037 µg/mL (≈ 0.0842 µM); against Enterococcus faecium, 0.078 µg/mL (≈ 0.178 µM).

On to `CC(C)=CCc1ccc(O)c(C=O)c1C(=O)c1cc(C)cc(OCC(O)C(C)(C)O)c1O` (stereo not given) [TENELLONE A], for which the Activity result in the data set listed under Gallus gallus is recorded as “Non-toxic”. Moreover, in the data set with Eimeria tenella, the result was inactive. Besides, the pIC50 in the data set on Toxoplasma gondii was 5.74; in data set [1], 4.90.

Turning to `CC(C)=CCc1ccc(O)c(C=O)c1C(=O)c1cc(C)cc2c1OC(C(C)(C)O)CO2` (stereo not given) [TENELLONE B], the Activity result in the data set listed under Gallus gallus is “Non-toxic”. Further, the outcome with Eimeria tenella was inactive. The pIC50 in data set [1] was 5.06.
